Measured values taken from the NIST ThermoML archive (doi:10.1021/acs.jced.5b00738).
Numbers after ± are expanded uncertainties.

Experiment: refractive index (Na D-line) (dimensionless)
Settings: 298.15 K; 101.33 kPa; Liquid; Standard Abbe refractometry

CC(C)=O [acetone]
refractive index: 1.35553 ± 0.001

CCC(C)(C)O [2-methylbutan-2-ol]
refractive index: 1.40219 ± 0.001

O=Cc1ccco1 [2-furaldehyde]
refractive index: 1.52263 ± 0.001

O [water]
refractive index: 1.33249 ± 0.001

CC(=O)CC(C)C [4-methylpentan-2-one]
refractive index: 1.39327 ± 0.001
